Experimental data from patent US20240287089A1, “Preparation and Uses of 7-Azaindenoisoquinolines” (Purdue Research Foundation, priority 0001, published 2024).
Like-named read-outs stand apart in the source and are kept apart here.

Assays:
[1] = tested on: γ-H2AX; test: Western blot of MOLT-4 tumor xenograft tissue; format: in vivo, human
From the text: (§1) In several cases, the levels of c-Myc were more greatly depressed at the lower dose level. For examples, see the 9-hour data for G104 in Tables 17 and 18 and the 6-hour data in Table 19. […] Overall, there are many unexpected and unexplained aspects of the data in Tables 17-19, which are highly variable and also highly dependent on cell type. In particular, drug-induced increases in c-Myc expression relative to control and the larger changes in c-Myc expression seen at lower vs. higher doses are counterintuitive and unexplained.

[2] = tested on: γ-H2AX; test: Western blot of RS4;11 tumor xenograft tissue; format: in vivo, human
[3] = format: in vivo
[4] = tested on: c-Myc; test: Western blot of RS4;11 tumor xenograft tissue; format: in vivo, human
From the text: as §1

[5] = tested on: c-Myc; test: Western blot of MOLT-4 tumor xenograft tissue; format: in vivo, human
[6] = tested on: c-Myc; test: Western blot of RD-ES tumor xenograft tissue; format: in vivo, human
From the text: as §1

[7] = tested on: γ-H2AX; test: Western blot of RD-ES tumor xenograft tissue; format: in vivo, human
From the text: as §1

[8] = tested on: RS4;11 human leukemia cells; test: RS4;11 xenograft in female NOD SCID mice; format: in vivo
Method: (§2) Xenograft Studies. […] JQ1 was employed as a positive control.
The compounds were also evaluated in an RS4;11 human leukemia xenograft model (FIGS. 20 and 21). Treatment was started 12 days after tumor inoculation, with drugs being administered on days 1-5 and 11-15 after the start of treatment. Animal weights and tumor volumes were determined at 12, 15, 19, 22, and 25 days after tumor inoculation.

[9] = Pharmacokinetics IV and PO in male CD1 mice
[10] = mouse, 1 μM
Method: Analysis of Plasma Protein Binding and Stability in Human and Mouse Blood Plasma by Equilibrium Dialysis. Frozen plasma (stored at −80° C.) was thawed immediately in a 37° C. water bath. The working solutions of test compound and control compound were prepared in DMSO at 200 μM concentration, and the working solutions were spiked into plasma. The final concentration of compound was 1 μM. The final concentration of DMSO was 0.5%. Ketoconazole was used as positive control in the assay. The dialysis membranes were soaked in ultrapure water for 60 min to separate strips, then in 20% ethanol for 20 min, and then finally in dialysis buffer for 20 min. For equilibrium dialysis, each cell contained plasma sample (150 μL) and was dialyzed against an equal volume of dialysis buffer (PBS). The assay was performed in duplicate. The dialysis plate was sealed and incubated at 37° C. with 5% CO2 at 100 rpm for 6 h. At the end of incubation, samples (50 μL) from both buffer and plasma chambers were transferred to wells of a 96-well plate. Plasma (50 μL) was added to each buffer sample and an equal volume of PBS was added to the collected plasma sample. […] The concentrations of test compounds in the buffer and plasma chambers were determined from peak area ratios.

[11] = Metabolic stability in liver microsomes; conditions: human liver microsomes
[12] = tested on: RD-ES human sarcoma tumor cells; test: RD-ES xenograft in female NOD SCID mice; format: in vivo; conditions: 20 mg/kg IV
Method: as §2
Similar studies were performed after inoculation of female NOD SCID mice with RD-ES human sarcoma tumor cells (FIGS. 16-19). The tumors grew much more rapidly and treatment was started on day 8 after tumor inoculation, with measurements of body weights and tumor sizes being made on days 8, 12, 15, 19, and 22 after tumor inoculation. […] The average RD-ES tumor sizes were much larger than observed with MOLT-4 (2327±285 vs. 546±59 mm^3).

[13] = male, CD1, mouse, plasma, iv, 1 mg/kg

## CCNCCCn1c2c(c3cc(OC)c(OC)cc3c1=O)C(=O)c1cc3c(nc1-2)OCO3 [G104, 6-(3-(Ethylamino)propyl)-2,3-dimethoxy-5H-[1,3]dioxolo[4″,5″:5′,6′]pyrido [3′,2′:4,5]cyclopenta[1,2-c]isoquinoline-5,12(6H)-dione]
[1]; MOLT-4, IV 15 mg/kg, 3 h
  γ-H2AX/GAPDH, % Relative to Vehicle: 71.86 ± 8.95%
[1]; MOLT-4, IV 15 mg/kg, 9 h
  γ-H2AX/GAPDH, % Relative to Vehicle: 138.12 ± 23.51%
[1]; MOLT-4, IV 30 mg/kg, 3 h
  γ-H2AX/GAPDH, % Relative to Vehicle: 47.29 ± 12.20%
[1]; MOLT-4, IV 30 mg/kg, 9 h
  γ-H2AX/GAPDH, % Relative to Vehicle: 168.88 ± 39.58%
[2]; RS4;11, IV 15 mg/kg, 3 h
  γ-H2AX/GAPDH, % Relative to Vehicle: 133.08 ± 38.59%
[2]; RS4;11, IV 15 mg/kg, 9 h
  γ-H2AX/GAPDH, % Relative to Vehicle: 142.66 ± 23.92%
[2]; RS4;11, IV 30 mg/kg, 3 h
  γ-H2AX/GAPDH, % Relative to Vehicle: 150.28 ± 29.86%
[2]; RS4;11, IV 30 mg/kg, 9 h
  γ-H2AX/GAPDH, % Relative to Vehicle: 220.37 ± 47.79%
[3]; MOLT-4, 3 h, IV 15 mg/kg
  Mean Tumor/Plasma Ratio: 51.3 ± 6.7
[3]; MOLT-4, 3 h, IV 30 mg/kg
  Mean Tumor/Plasma Ratio: 69.5 ± 8.8
[3]; MOLT-4, 9 h, IV 15 mg/kg
  Mean Tumor/Plasma Ratio: 125 ± 29
[3]; MOLT-4, 9 h, IV 30 mg/kg
  Mean Tumor/Plasma Ratio: 106 ± 21
[4]; RS4;11, IV 15 mg/kg, 3 h
  c-Myc/GAPDH, % Relative to Vehicle: 92.20 ± 2.11%
[4]; RS4;11, IV 15 mg/kg, 9 h
  c-Myc/GAPDH, % Relative to Vehicle: 92.59 ± 13.64%
[4]; RS4;11, IV 30 mg/kg, 3 h
  c-Myc/GAPDH, % Relative to Vehicle: 111.60 ± 8.19%
[4]; RS4;11, IV 30 mg/kg, 9 h
  c-Myc/GAPDH, % Relative to Vehicle: 100.31 ± 2.71%
[5]; MOLT-4, IV 15 mg/kg, 3 h
  c-Myc/GAPDH, % Relative to Vehicle: 119.75 ± 13.40%
[5]; MOLT-4, IV 15 mg/kg, 9 h
  c-Myc/GAPDH, % Relative to Vehicle: 88.54 ± 7.63%
[5]; MOLT-4, IV 30 mg/kg, 3 h
  c-Myc/GAPDH, % Relative to Vehicle: 114.32 ± 4.41%
[5]; MOLT-4, IV 30 mg/kg, 9 h
  c-Myc/GAPDH, % Relative to Vehicle: 100.33 ± 2.35%
[6]; IV 15 mg/kg, 3 h
  c-Myc/GAPDH, % Relative to Vehicle: 128.94 ± 6.14%
[6]; IV 15 mg/kg, 6 h
  c-Myc/GAPDH, % Relative to Vehicle: 53.57 ± 10.75%
[6]; IV 30 mg/kg, 3 h
  c-Myc/GAPDH, % Relative to Vehicle: 188.78 ± 28.24%
[6]; IV 30 mg/kg, 6 h
  c-Myc/GAPDH, % Relative to Vehicle: 91.67 ± 23.70%
[7]; IV 15 mg/kg, 3 h
  γ-H2AX/GAPDH, % Relative to Vehicle: 155.18 ± 11.44%
[7]; IV 15 mg/kg, 6 h
  γ-H2AX/GAPDH, % Relative to Vehicle: 101.89 ± 7.35%
[7]; IV 30 mg/kg, 3 h
  γ-H2AX/GAPDH, % Relative to Vehicle: 85.61 ± 23.26%
[7]; IV 30 mg/kg, 6 h
  γ-H2AX/GAPDH, % Relative to Vehicle: 99.26 ± 10.19%

## COc1cc2c3c(n(CCCNCCO)c(=O)c2cc1OC)-c1nc2c(cc1C3=O)OCO2 [G105, 6-(3-((2-Hydroxyethyl)amino)propyl)-2,3-dimethoxy-5H-[1,3]dioxolo[4″,5″:5′,6′]pyrido[3′,2′:4,5]cyclopenta[1,2-c]isoquinoline-5,12(6H)-dione]
[1]; MOLT-4, IV 10 mg/kg, 3 h
  γ-H2AX/GAPDH, % Relative to Vehicle: 60.98 ± 8.93%
[1]; MOLT-4, IV 10 mg/kg, 9 h
  γ-H2AX/GAPDH, % Relative to Vehicle: 172.03 ± 47.41%
[1]; MOLT-4, IV 20 mg/kg, 3 h
  γ-H2AX/GAPDH, % Relative to Vehicle: 56.62 ± 11.87%
[1]; MOLT-4, IV 20 mg/kg, 9 h
  γ-H2AX/GAPDH, % Relative to Vehicle: 109.66 ± 28.34%
[2]; RS4;11, IV 10 mg/kg, 3 h
  γ-H2AX/GAPDH, % Relative to Vehicle: 67.00 ± 2.90%
[2]; RS4;11, IV 10 mg/kg, 9 h
  γ-H2AX/GAPDH, % Relative to Vehicle: 166.37 ± 40.45%
[2]; RS4;11, IV 20 mg/kg, 3 h
  γ-H2AX/GAPDH, % Relative to Vehicle: 219.29 ± 82.49%
[2]; RS4;11, IV 20 mg/kg, 9 h
  γ-H2AX/GAPDH, % Relative to Vehicle: 540.94 ± 97.90%
[3]; MOLT-4, 3 h, IV 10 mg/kg
  Mean Tumor/Plasma Ratio: 50 ± 13.4
[3]; MOLT-4, 9 h, IV 10 mg/kg
  Mean Tumor/Plasma Ratio: 357 ± 180
[3]; MOLT-4, 9 h, IV 20 mg/kg
  Mean Tumor/Plasma Ratio: 326 ± 102
[8]; 20 mg/kg IV
  toxicity estimated from decrease in animal weight: most toxic
[8]; IV days 1-5 and 11-15, G105 20 mg/kg, G104 15 and 30 mg/kg
  reduction of tumor volume: most potent
[4]; RS4;11, IV 10 mg/kg, 3 h
  c-Myc/GAPDH, % Relative to Vehicle: 102.74 ± 3.45%
[4]; RS4;11, IV 10 mg/kg, 9 h
  c-Myc/GAPDH, % Relative to Vehicle: 74.98 ± 3.52%
[4]; RS4;11, IV 20 mg/kg, 3 h
  c-Myc/GAPDH, % Relative to Vehicle: 100.30 ± 16.76%
[4]; RS4;11, IV 20 mg/kg, 9 h
  c-Myc/GAPDH, % Relative to Vehicle: 80.45 ± 3.93%
[5]; MOLT-4, IV 10 mg/kg, 3 h
  c-Myc/GAPDH, % Relative to Vehicle: 110.56 ± 4.90%
[5]; MOLT-4, IV 10 mg/kg, 9 h
  c-Myc/GAPDH, % Relative to Vehicle: 84.53 ± 6.26%
[5]; MOLT-4, IV 20 mg/kg, 3 h
  c-Myc/GAPDH, % Relative to Vehicle: 96.74 ± 9.71%
[5]; MOLT-4, IV 20 mg/kg, 9 h
  c-Myc/GAPDH, % Relative to Vehicle: 83.89 ± 10.06%
[9]; IV 1 mg/kg, male CD1 mice
  AUCInf: 155 ng·h/mL
  AUClast: 151 ng·h/mL
  AUClast/D: 151 ng·h/mL
  AUC—% Extrap—obs: 2.61%
  C0: 177 ng/mL
  Cl_obs: 107 mL/min/kg
  MRTInf—obs: 1.49 h
  T1/2: 1.84 h
[9]; PO 10 mg/kg, male CD1 mice
  AUCInf: 28.8 ng·h/mL
  AUClast: 18.0 ng·h/mL
  AUClast/D: 1.80 ng·h/mL
  AUC—% Extrap—obs: 37.3%
  Cmax: 3.50 ng/mL
  F (fraction of the dose absorbed): 1.19%
  MRTInf—obs: 7.86 h
  T1/2: 5.20 h
  Tmax: 0.500 h
[9]; [13]
  Vd: 9.62 L/kg
  half-life: 1.84 h
[9]; male, CD1, mouse, plasma, po, 10 mg/kg
  half-life: 5.2 h
[10]
  % Stability at 6 hrs: 97.59%
[11]
  Scaled-up CLint: 7.67 mL/min/kg
  in vitro CLint: 6.12 μL/min/mg protein
[11]; 1 μM
  T1/2: 3.7753 h
[12]
  potency on tumor size: most potent
[6]; IV 10 mg/kg, 3 h
  c-Myc/GAPDH, % Relative to Vehicle: 128.18 ± 13.67%
[6]; IV 10 mg/kg, 6 h
  c-Myc/GAPDH, % Relative to Vehicle: 69.45 ± 15.02%
[6]; IV 20 mg/kg, 3 h
  c-Myc/GAPDH, % Relative to Vehicle: 154.98 ± 17.80%
[6]; IV 20 mg/kg, 6 h
  c-Myc/GAPDH, % Relative to Vehicle: 71.97 ± 14.55%
[7]; IV 10 mg/kg, 3 h
  γ-H2AX/GAPDH, % Relative to Vehicle: 145.80 ± 32.79%
[7]; IV 10 mg/kg, 6 h
  γ-H2AX/GAPDH, % Relative to Vehicle: 111.73 ± 14.44%
[7]; IV 20 mg/kg, 3 h
  γ-H2AX/GAPDH, % Relative to Vehicle: 134.62 ± 18.03%
[7]; IV 20 mg/kg, 6 h
  γ-H2AX/GAPDH, % Relative to Vehicle: 109.81 ± 27.72%
